From patent publication US20140094451A1, “PREVENTIVE OR REMEDY FOR GLAUCOMA” (Kowa Co., Ltd., priority 2005, published 2014)

What was measured:
Japanese white rabbits = assay: Ocular hypotensive effect (IOP change from initial IOP) after instillation, alone or in combination; type: in vivo; settings: FIG. 2; single drug treatment groups; instillation 50 μL, male JW rabbits
Procedure: To examine usefulness of combination use of a Rho kinase inhibitor and an α1 blocker, the ocular hypotensive effects were compared by administering either of these drugs alone or both in combination to laboratory animals. (S)-(−)-1-(4-fluoro-5-isoquinolinesulfonyl)-2-methyl-1,4-homopiperazine-hydrochloride dihydrate was dissolved in physiological saline, and the solution was neutralized (pH 6.0) by adding sodium dihydrogenphosphate and sodium hydroxide to prepare a (S)-(−)-1-(4-fluoro-5-isoquinolinesulfonyl)-2-methyl-1,4-homopiperazine solution at a desired concentration. The commercially available “Eril® S Injection” (Asahi Kasei Pharma) was used as it was. The commercially available “Detantol 0.01% Ophthalmic Solution” (Santen Pharmaceutical Co., Ltd.) was used as it was. The ocular hypotensive effect was examined after the combination use of (S)-(−)-1-(4-fluoro-5-isoquinolinesulfonyl)-2-methyl-1,4-homopiperazine and bunazosin. As a control, the ocular hypotensive effect was also examined after the use of bunazosin alone or (S)-(−)-1-(4-fluoro-5-isoquinolinesulfonyl)-2-methyl-1,4-homopiperazine alone. Similarly, the ocular hypotensive effect was examined after the combination use of hexahydro-1-(5-isoquinolinesulfonyl)-1H-1,4-diazepine and bunazosin. […]

rabbits with normal IOP = settings: cited from earlier work

Row | SMILES | time after instillation when the ocular hypotensive effect disappeared (Japanese white rabbits) | time after instillation from which IOP is lowered (rabbits with normal IOP) | time of maximum ocular hypotensive effect after instillation (rabbits with normal IOP) | maximum IOP reduction (rabbits with normal IOP; instillation, concentration of 0.10)
1 | CCCC(=O)N1CCCN(c2nc(N)c3cc(OC)c(OC)cc3n2)CC1 [bunazosin] | 5 h |  |  | 
2 | O=S(=O)(c1cccc2cnccc12)N1CCCNCC1 [hexahydro-1-(5-isoquinolinesulfonyl)-1H-1,4-diazepine] | 5 h |  |  | 
3 | C[C@@H](N)c1ccc(C(=O)Nc2ccnc3[nH]ccc23)cc1 [Y-39983] |  | 1 h | 2 to 4 h | 15 mmHg
